Measurements: ChEMBL document CHEMBL4406890, “Discovery of a novel bicyclic compound, DS54360155, as an orally potent analgesic without mu-opioid receptor agonist activity” (Bioorg Med Chem Lett, 2019)

Legend:
Mus musculus [1] = test: Analgesic activity in ddY mouse model of acetic acid-induced writhing assessed as inhibition of writhing numbers at 30 mg/kg, po pretreated for 30 mins followed by acetic acid challenge and measured for 25 mins relative to control; assay type: functional
hERG (KCNH2) = hERG (KCNH2) (Homo sapiens, UniProt Q12809); test: Inhibition of human ERG at 10 uM relative to control
Sequence of hERG (KCNH2) (Q12809 whole entry): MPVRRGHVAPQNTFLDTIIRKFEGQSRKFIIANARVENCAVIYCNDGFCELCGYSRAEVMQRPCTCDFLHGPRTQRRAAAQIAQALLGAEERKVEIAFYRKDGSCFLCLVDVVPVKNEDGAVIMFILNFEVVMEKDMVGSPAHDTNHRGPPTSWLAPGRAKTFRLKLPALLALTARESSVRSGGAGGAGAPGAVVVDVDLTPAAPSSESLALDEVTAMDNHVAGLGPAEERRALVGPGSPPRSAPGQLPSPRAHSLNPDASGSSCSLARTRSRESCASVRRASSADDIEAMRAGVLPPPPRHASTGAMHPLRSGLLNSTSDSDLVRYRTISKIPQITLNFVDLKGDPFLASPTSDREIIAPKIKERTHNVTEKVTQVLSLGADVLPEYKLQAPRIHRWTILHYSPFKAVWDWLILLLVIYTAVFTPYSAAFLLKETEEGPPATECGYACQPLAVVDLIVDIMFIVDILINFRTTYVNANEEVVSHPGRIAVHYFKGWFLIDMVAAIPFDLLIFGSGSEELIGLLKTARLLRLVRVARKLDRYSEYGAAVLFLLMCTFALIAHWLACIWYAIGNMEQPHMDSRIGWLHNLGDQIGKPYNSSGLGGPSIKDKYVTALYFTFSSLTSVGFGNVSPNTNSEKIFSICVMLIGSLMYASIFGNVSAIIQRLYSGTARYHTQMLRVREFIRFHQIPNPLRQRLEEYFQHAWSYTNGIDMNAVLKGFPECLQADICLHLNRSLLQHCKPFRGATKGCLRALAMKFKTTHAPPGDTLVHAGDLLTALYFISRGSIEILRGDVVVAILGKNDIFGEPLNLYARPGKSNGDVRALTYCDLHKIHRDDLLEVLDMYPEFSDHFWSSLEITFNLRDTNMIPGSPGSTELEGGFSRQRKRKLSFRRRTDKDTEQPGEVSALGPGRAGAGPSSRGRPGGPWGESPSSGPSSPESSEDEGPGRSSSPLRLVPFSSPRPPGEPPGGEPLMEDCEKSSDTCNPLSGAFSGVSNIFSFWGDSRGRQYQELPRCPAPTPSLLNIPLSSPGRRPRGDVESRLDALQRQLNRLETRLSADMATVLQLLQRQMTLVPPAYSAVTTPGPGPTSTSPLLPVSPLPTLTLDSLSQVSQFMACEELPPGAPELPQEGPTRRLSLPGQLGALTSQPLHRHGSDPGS

[2] = Metabolic stability in CD1 mouse liver microsomes assessed as parent compound remaining incubated for 0.5 hrs in presence of beta-NADP by LC-MS/MS analysis; assay type: ADME, Microsome; conditions: read-out: Stability
Mus musculus [3] = test: Analgesic activity in ddY mouse assessed as reduction in total time spent in paw licking and biting during initial phase at 30 mg/kg, po pretreated for 30 mins followed by formalin challenge and measured for 15 mins post formalin challenge by formalin test relative to control; assay type: functional
Mus musculus [4] = test: Analgesic activity in oral dosed ddY mouse model of acetic acid-induced writhing pretreated for 30 mins followed by acetic acid challenge and measured for 25 mins; assay type: functional
Mu-type opioid receptor [5] = target: T1, Mu-type opioid receptor (Homo sapiens, UniProt P35372); test: Agonist activity at human mu opioid receptor expressed in CHOK1 cells assessed as inhibition of forskolin-induced cAMP production by FRET assay; assay type: cell-based
T1 sequence (P35372 whole entry): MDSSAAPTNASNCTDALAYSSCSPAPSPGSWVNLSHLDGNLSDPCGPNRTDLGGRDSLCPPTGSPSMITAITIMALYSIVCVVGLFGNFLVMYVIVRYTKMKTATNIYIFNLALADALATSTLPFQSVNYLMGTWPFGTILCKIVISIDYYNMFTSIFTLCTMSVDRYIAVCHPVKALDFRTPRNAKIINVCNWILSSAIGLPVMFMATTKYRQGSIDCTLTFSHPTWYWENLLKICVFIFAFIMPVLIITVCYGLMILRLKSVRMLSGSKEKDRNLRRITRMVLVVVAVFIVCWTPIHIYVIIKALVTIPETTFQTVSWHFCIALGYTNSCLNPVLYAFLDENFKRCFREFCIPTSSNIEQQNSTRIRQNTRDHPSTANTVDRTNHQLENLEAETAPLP

[6] = Clearance in ddY mouse at 1 mg/kg, iv measured after 3 mins by LC-MS/MS analysis; assay type: ADME, organism-based; conditions: in vivo
[7] = Volume of distribution in ddY mouse at 1 mg/kg, iv measured after 3 mins by LC-MS/MS analysis; assay type: ADME, organism-based; conditions: in vivo
[8] = 1-Octanol/phosphate buffered-saline distribution coefficient, logD of compound at pH 7.4; assay type: physicochemical
Mu-type opioid receptor [9] = target: T1, Mu-type opioid receptor; test: Agonist activity at human mu opioid receptor expressed in CHOK1 cells assessed as inhibition of forskolin-induced cAMP production by FRET assay relative to DAMGO; assay type: cell-based
Mu-type opioid receptor [10] = target: T1, Mu-type opioid receptor; test: Displacement of [3H]-diprenorphin from human mu opioid receptor incubated for 1 hr; assay type: ADME
Mus musculus [11] = test: Analgesic activity in ddY mouse model of acetic acid-induced writhing assessed as inhibition of writhing numbers at 10 mg/kg, po pretreated for 30 mins followed by acetic acid challenge and measured for 25 mins relative to control; assay type: functional
[12] = AUC in ddY mouse at 10 mg/kg, po measured after 3 mins by LC-MS/MS analysis; assay type: ADME, organism-based; design: time < 0.05 hr, dose 10 mg/kg, route oral; conditions: in vivo
[13] = Half-life in ddY mouse at 10 mg/kg, po measured after 3 mins by LC-MS/MS analysis; assay type: ADME, organism-based; conditions: in vivo
[14] = Cmax in ddY mouse at 10 mg/kg, po measured after 3 mins by LC-MS/MS analysis; assay type: ADME, organism-based; design: dose 10 mg/kg, route oral; conditions: in vivo
Mus musculus [15] = test: Analgesic activity in ddY mouse model of acetic acid-induced writhing assessed as inhibition of writhing numbers at 3 mg/kg, po pretreated for 30 mins followed by acetic acid challenge and measured for 25 mins relative to control; assay type: functional

Row | SMILES | inhibition in vivo at 30 mg/kg (Mus musculus [1]) [%] | inhibition at 10 µM (hERG (KCNH2)) [%] | remaining at 0.5 h [2] [%] | inhibition in vivo at 30 mg/kg (Mus musculus [3]) [%] | ED50 (Mus musculus [4]) [mg/kg] | EC50 (Mu-type opioid receptor [5]) [µM] | clearance [6] [L/h/kg] | Vd [7] [L/kg] | logD [8] | Emax (Mu-type opioid receptor [9]) [%] | IC50 (Mu-type opioid receptor [10]) [µM] | inhibition in vivo at 10 mg/kg (Mus musculus [11]) [%] | AUC at 0.05 h [12] [µM·h] | half-life [13] [h] | Cmax [14] [µM] | inhibition in vivo at 3 mg/kg (Mus musculus [15]) [%]
1 | C/C=C1/CN2CC[C@H]1C(=O)c1[nH]c3ccccc3c1C2.O=S(=O)(O)O | 49 | 63 | 34 | 43 | 32 | > 100 |  |  |  |  |  |  |  |  |  | 
2 | CN1C(=O)c2[nH]c3ccccc3c2CN2CC[C@H]1C2.O=S(=O)(O)O | 95 | 14 | 99 | 83 | 12 | > 100 | 1.49 | 1.72 | 0.7 | 19 | > 100 | 23 | 5.8 | 2.27 | 2.15 | 19
3 | CN1C(=O)c2[nH]c3ccccc3c2CN2CCC[C@H]1C2 | 77 | 38 | 74 |  | 23 |  |  |  | 1 |  |  |  | 1.59 | 2.18 | 0.72 | 
4 | CN1C(=O)c2[nH]c3ccccc3c2CN2CC[C@@H]1C2.O=S(=O)(O)O | 49 | 23 | > 100 | 30 | 27 | > 100 | 0.774 | 1.14 | 0.7 | 18 | > 100 |  | 12.2 | 2.52 | 2.99 | 
5 | CCN1CCCC(=O)c2[nH]c3ccccc3c2C1 | 36 | 73 | 49 |  |  |  |  |  | 1.3 |  |  |  |  |  |  | 
6 | CN1C(=O)c2[nH]c3ccccc3c2CN2CCC[C@@H]1C2 | 65 |  | 82 |  |  |  |  |  | 0.9 |  |  |  |  |  |  | 
7 | CN1CCCC(=O)c2[nH]c3ccccc3c2C1 | 31 | 50 | 53 |  |  |  |  |  | 1.1 |  |  |  |  |  |  | 
8 | CC12CCCN(CC1)Cc1c([nH]c3ccccc13)C2=O (racemic) | 21 | 88 | 91 |  |  |  |  |  | 1.5 |  |  |  |  |  |  | 
9 | CN1C(=O)c2[nH]c3ccccc3c2CN2CCC1(C)C2 (racemic) | 37 | 36 | 93 |  |  |  |  |  | 0.7 |  |  |  |  |  |  | 
10 | O=C1c2[nH]c3ccccc3c2CN2CCC3(CCCN13)C2 (racemic) | 47 | 13 | 82 |  |  |  |  |  | 1.2 |  |  |  |  |  |  | 
11 | CCCN1C(=O)c2[nH]c3ccccc3c2CN2CCC1C2 (racemic) | 44 | 43 | 72 |  |  |  |  |  | 1.6 |  |  |  |  |  |  | 
12 | O=C1c2[nH]c3ccccc3c2CN2CCC(C2)N1C1CC1 (racemic) | 55 | 19 | 92 |  |  |  |  |  | 1.1 |  |  |  |  |  |  | 
13 | CN1C(=O)c2[nH]c3ccccc3c2CN2CCC1C2.O=S(=O)(O)O (racemic) | 83 | 26 | > 100 |  | 21 |  |  |  | 0.7 |  |  |  | 3.29 | 1.69 | 1.46 | 
14 | CCN1C(=O)c2[nH]c3ccccc3c2CN2CCC1C2 (racemic) | 43 | 14 | 91 |  |  |  |  |  | 1.1 |  |  |  |  |  |  | 
